Test results taken from patent publication US7511042B2, “Triazole compounds” (Boehringer Ingelheim Pharmaceuticals, Inc., priority 2003, dated 2009).

melting point | SMILES
181 to 182 °C (dec.) | COc1cnc(C(C)(C)C)cc1NC(=O)c1ccc(C)c(-n2cc(C(=O)NCC(C)(C)C)nn2)c1 [Example 12, 1-[5-(2-tert-Butyl-5-methoxy-pyridin-4-ylcarbamoyl)-2-methyl-phenyl]-1H-1,2,3-triazole-4-carboxylic acid (2,2-dimethyl-propyl)-amide]
74 to 78 °C (dec.) | Cc1ccc(C(=O)Nc2cc(C(C)(C)C)ccc2[S+](C)[O-])cc1-n1cc(C(=O)NCC(C)(C)C)nn1 (centres unmarked) [Example 13, 1-[5-(5-tert-Butyl-2-methanesulfinyl-phenylcarbamoyl)-2-methyl-phenyl]-1H-1,2,3-triazole-4-carboxylic acid (2,2-dimethyl-propyl)-amide]
